The source of these data is patent publication US12551500B2, “C6′-substituted locked nucleic acid-modified cap analog and use thereof” (Hangzhou Tianlong Pharmaceutical Co., Ltd., priority 2024, dated 2026).

In one test the target is T7 RNA polymerase (Escherichia phage T7, UniProt P00573). In words: Capping rate of in vitro transcribed mRNA by LC-MS. The format is biochemical. As to conditions: for capping rate higher than that of compound 14: difference to compound 14. The method, then:
YK-CAP-001 to 006 and compound 14 in Table 1 were respectively used as cap analogs.
During the experiment, the volume of materials required for the system was first calculated, and then sample addition was conducted. The system was first added with sterile enzyme-free water, followed by the sequential addition of 10× buffer, NTPs, and cap analogs, mixed well, and gently centrifuged. Nuclease inhibitors, inorganic pyrophosphatase, T7 RNA polymerase, and linearized DNA templates were then added thereto. The system was mixed well, gently centrifuged, and incubated at 37° C. After 2 hours of incubation, the system was added with 1 U of DNase I and incubated at 37° C. for another 30 minutes. The mRNA precipitate was then washed with 75% ethanol, and after the ethanol was briefly evaporated to dryness, the mRNA was redissolved in sterile enzyme-free water.
(4) The obtained mRNA was subjected to an annealing reaction with a probe.
The annealing reaction was performed in a PCR instrument: 95° C. for 5 minutes; 65° C. for 2 minutes; 55° C. for 2 minutes; 40° C. for 2 minutes; 22° C. for 2 minutes.
(5) Magnetic bead pretreatment and probe binding: 100 μL of magnetic beads was placed on a magnetic frame for pretreatment. The magnetic bead solution was added with 120 μL of sample and incubated at room temperature for 30 minutes with slow mixing.
(6) mRNA splicing and obtaining the 5′ single-strand sequence bound to the probe
The mixture was added with 20 μL of RNase H (5 U/μL) and incubated at 37° C. for 3 hours with mixing every half hour. After incubation, the magnetic beads were washed and then added with 100 μL of 75% methanol heated to 80° C. The mixture was heated to 80° C. on a heating plate, held for 3 minutes, then placed on a magnetic frame to aspirate the supernatant, and dried at room temperature for 45 minutes to a volume of 10 μL using a centrifugal evaporator. The sample was then resuspended in 50 μL of 100 μM EDTA/1% MeOH and ready for LC-MS analysis to determine the capping of RNA in the transcription reaction. Since there is a significant difference in molecular weight between capped and uncapped bases, the capping rate of mRNA transcription initiated by different cap analogs can be determined based on the difference in molecular mass.

Another test deals with BALB/C mice. In words: In vivo imaging of protein expressed by LNP-carrying Fluc-mRNA in mice. The conditions noted are these: for Average radiation intensity: female BALB/C mice; for average radiation intensity, times that of N-7413: ratio to N-7413; for average radiation intensity, times that of YK-CAP-001: ratio to YK-CAP-001; for average radiation intensity, times that of YK-CAP-002: ratio to YK-CAP-002; for average radiation intensity, times that of compound 14: ratio to compound 14; for average radiation intensity, times that of m6A: ratio to m6A. On the procedure: The LNP preparation containing […] of Fluc-mRNAs transcribed using the cap analogs YK-CAP-001 to 006 in the present disclosure and the cap analogs N-7413, compound 14, and m6A in the prior art was intramuscularly injected into female BALB/C mice aged 4 to 6 weeks and weighing 17 to 19 g. At specific time points after administration (6 hours, 12 hours, 24 hours, 48 hours, 96 hours, and 168 hours), the mice were intraperitoneally injected with fluorescence imaging substrate. The mice were then allowed to move freely for 5 minutes, followed by detection of the average radiation intensity (corresponding to the amount of protein expression) of the protein expressed by LNP-carrying mRNA in the mice using an IVIS Spectrum small-animal in vivo imaging system.

The mark [1] stands for this setting: 6 h after intramuscular injection of LNP Fluc-mRNA.
Setting [2] is: 12 h after intramuscular injection of LNP Fluc-mRNA.
The mark [3] stands for this setting: 24 h after intramuscular injection of LNP Fluc-mRNA.
[4] abbreviates: 48 h after intramuscular injection of LNP Fluc-mRNA.
[5] abbreviates: 96 h after intramuscular injection of LNP Fluc-mRNA.
Setting [6] is: 168 h after intramuscular injection of LNP Fluc-mRNA.

T7 RNA polymerase, sequence (P00573 whole entry): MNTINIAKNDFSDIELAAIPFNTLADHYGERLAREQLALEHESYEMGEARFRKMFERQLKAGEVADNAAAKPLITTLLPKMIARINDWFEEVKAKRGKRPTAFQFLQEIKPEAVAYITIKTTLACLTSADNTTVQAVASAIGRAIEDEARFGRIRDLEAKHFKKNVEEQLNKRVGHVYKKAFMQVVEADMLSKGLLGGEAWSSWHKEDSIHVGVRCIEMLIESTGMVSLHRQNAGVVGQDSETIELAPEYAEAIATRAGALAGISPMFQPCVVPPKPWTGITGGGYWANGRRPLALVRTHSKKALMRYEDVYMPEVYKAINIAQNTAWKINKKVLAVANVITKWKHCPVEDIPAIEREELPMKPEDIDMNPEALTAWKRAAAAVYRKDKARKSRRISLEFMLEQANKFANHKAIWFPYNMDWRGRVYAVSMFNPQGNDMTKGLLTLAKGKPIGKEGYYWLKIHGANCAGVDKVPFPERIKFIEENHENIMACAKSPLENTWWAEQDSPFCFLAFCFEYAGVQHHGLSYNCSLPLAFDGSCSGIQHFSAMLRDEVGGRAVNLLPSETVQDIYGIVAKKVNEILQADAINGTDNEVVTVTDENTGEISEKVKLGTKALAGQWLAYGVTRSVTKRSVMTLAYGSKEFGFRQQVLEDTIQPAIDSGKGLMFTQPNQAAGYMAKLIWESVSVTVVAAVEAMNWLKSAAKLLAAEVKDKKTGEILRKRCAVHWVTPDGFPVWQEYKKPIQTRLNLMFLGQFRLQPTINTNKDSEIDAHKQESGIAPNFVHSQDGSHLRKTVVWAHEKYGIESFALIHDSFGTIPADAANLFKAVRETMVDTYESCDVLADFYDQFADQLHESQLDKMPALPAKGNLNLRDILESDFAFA

Take `COC1C(OP(=O)([O-])OC[C@H]2O[C@@H](n3cnc4c(=O)[nH]c(N)nc43)C(O)C2O)[C@@H](COP(=O)(O)OP(=O)(O)OP(=O)(O)OC[C@]23O[C@@H]([n+]4cn(C)c5c(=O)[nH]c(N)nc54)C(O[C@H]2CCS(C)(=O)=O)C3O)O[C@H]1n1cnc2c(N)ncnc21` (some centres unmarked) [YK-CAP-005]: the “capping rate higher than that of compound 14” value at T7 RNA polymerase is 17.7%. In addition, the Average radiation intensity came to 3171000 p/s/cm^2/sr in the test with BALB/C mice (setting [1]); 2497200 p/s/cm^2/sr with BALB/C mice (setting [2]); 998650 p/s/cm^2/sr with BALB/C mice (setting [3]); 834250 p/s/cm^2/sr with BALB/C mice (setting [4]); 110595 p/s/cm^2/sr with BALB/C mice (setting [5]); 17807 p/s/cm^2/sr in the test on BALB/C mice (setting [6]). The “average radiation intensity, times that of N-7413” value in the test with BALB/C mice (at 6 hours) was 1.1 times; in the test on BALB/C mice (at 96 hours), 1.6 times. The “average radiation intensity, times that of YK-CAP-001” value in the test with BALB/C mice (at 6 hours) is on record as 1.8 times; in the test with BALB/C mice (at 96 hours), 2.5 times. Moreover, the “average radiation intensity, times that of YK-CAP-002” value in the test on BALB/C mice (at 6 hours) was determined as 2.2 times; in the test on BALB/C mice (at 96 hours), 5.3 times. The “average radiation intensity, times that of compound 14” value in the test on BALB/C mice (at 6 hours) is listed as 1.2 times; with BALB/C mice (at 96 hours) it was 1.9 times. Moreover, the figures for the “average radiation intensity, times that of m6A” value with BALB/C mice (at 6 hours) and in the test on BALB/C mice (at 96 hours) were 1.8 times and 3.3 times, respectively.

Turning to `COC1C(OP(=O)([O-])OC[C@H]2O[C@@H](n3cnc4c(=O)[nH]c(N)nc43)C(O)C2O)[C@@H](COP(=O)(O)OP(=O)(O)OP(=O)(O)OC[C@]23O[C@@H]([n+]4cn(C)c5c(=O)[nH]c(N)nc54)C(O[C@H]2CC(F)F)C3O)O[C@H]1n1cnc2c(N)ncnc21` (some centres unmarked) [YK-CAP-004], the “capping rate higher than that of YK-CAP-001” value at T7 RNA polymerase (difference to YK-CAP-001) worked out at 23.2%. Moreover, the “capping rate higher than that of YK-CAP-002” value at T7 RNA polymerase (difference to YK-CAP-002) is 26.1%. Further, on T7 RNA polymerase, the “capping rate higher than that of compound 14” value was determined as 18.8%. At T7 RNA polymerase (mRNA transcribed with the cap analog, LC-MS), the Capping rate came out at 96.3%. In addition, the Average radiation intensity was 3856100 p/s/cm^2/sr with BALB/C mice (setting [1]); 2836750 p/s/cm^2/sr with BALB/C mice (setting [2]); 1159325 p/s/cm^2/sr in the test on BALB/C mice (setting [3]); 903025 p/s/cm^2/sr with BALB/C mice (setting [4]); 114933 p/s/cm^2/sr in the test on BALB/C mice (setting [5]); 19785 p/s/cm^2/sr in the test with BALB/C mice (setting [6]). For the same compound, the results for the “average radiation intensity, times that of N-7413” value in the test with BALB/C mice (at 6 hours) and in the test on BALB/C mice (at 96 hours) were 1.4 times and 1.7 times, respectively. In addition, the “average radiation intensity, times that of YK-CAP-001” value is given as 2.2 times with BALB/C mice (at 6 hours) and 2.6 times in the test with BALB/C mice (at 96 hours). The figures for the “average radiation intensity, times that of YK-CAP-002” value in the test on BALB/C mice (at 6 hours) and in the test on BALB/C mice (at 96 hours) were 2.6 times and 5.5 times, respectively. For the same compound, the “average radiation intensity, times that of compound 14” value worked out at 1.5 times with BALB/C mice (at 6 hours) and 2.0 times in the test on BALB/C mice (at 96 hours). Besides, the “average radiation intensity, times that of m6A” value with BALB/C mice (at 6 hours) turned out to be 2.1 times; in the test with BALB/C mice (at 96 hours), 3.4 times.

On to `COC1C(OP(=O)([O-])OC[C@H]2O[C@@H](n3cnc4c(=O)[nH]c(N)nc43)C(O)C2O)[C@@H](COP(=O)(O)OP(=O)(O)OP(=O)(O)OC[C@]23O[C@@H]([n+]4cn(C)c5c(=O)[nH]c(N)nc54)C(O[C@H]2CC(=O)N(C)C)C3O)O[C@H]1n1cnc2c(N)ncnc21` (some centres unmarked) [YK-CAP-003], for which the “capping rate higher than that of compound 14” value on T7 RNA polymerase is 17.3%. Further, the Average radiation intensity in the test with BALB/C mice (setting [1]) is recorded as 3212750 p/s/cm^2/sr; in the test on BALB/C mice (setting [2]), 2454750 p/s/cm^2/sr; in the test on BALB/C mice (setting [3]), 1053625 p/s/cm^2/sr; in the test with BALB/C mice (setting [4]), 700200 p/s/cm^2/sr; in the test on BALB/C mice (setting [5]), 57893 p/s/cm^2/sr; in the test with BALB/C mice (setting [6]), 19016 p/s/cm^2/sr. Further, the figures for the “average radiation intensity, times that of N-7413” value with BALB/C mice (at 6 hours) and in the test with BALB/C mice (at 96 hours) were 1.2 times and 0.8 times, respectively. For the same compound, the “average radiation intensity, times that of YK-CAP-001” value in the test on BALB/C mice (at 6 hours) is given as 1.9 times; with BALB/C mice (at 96 hours), 1.3 times. Also, the “average radiation intensity, times that of YK-CAP-002” value in the test with BALB/C mice (at 6 hours) stood at 2.2 times; in the test with BALB/C mice (at 96 hours), 2.8 times. Also, the “average radiation intensity, times that of compound 14” value is reported as 1.2 times in the test on BALB/C mice (at 6 hours) and 1.0 times with BALB/C mice (at 96 hours). The “average radiation intensity, times that of m6A” value worked out at 1.8 times in the test on BALB/C mice (at 6 hours) and 1.7 times in the test with BALB/C mice (at 96 hours).

Consider `COC1C(OP(=O)([O-])OC[C@H]2O[C@@H](n3cnc4c(=O)[nH]c(N)nc43)C(O)C2O)[C@@H](COP(=O)(O)OP(=O)(O)OP(=O)(O)OC[C@]23O[C@@H]([n+]4cn(C)c5c(=O)[nH]c(N)nc54)C(O[C@H]2CCS(=O)(=O)N(C)C)C3O)O[C@H]1n1cnc2c(N)ncnc21` (some centres unmarked) [YK-CAP-006], for which the “capping rate higher than that of compound 14” value on T7 RNA polymerase was found to be 17.6%. The Average radiation intensity in the test with BALB/C mice (setting [1]) is reported as 3303900 p/s/cm^2/sr; with BALB/C mice (setting [2]), 2067750 p/s/cm^2/sr; in the test with BALB/C mice (setting [3]) it was 976550 p/s/cm^2/sr; with BALB/C mice (setting [4]) it was 798075 p/s/cm^2/sr; in the test with BALB/C mice (setting [5]), 75840 p/s/cm^2/sr; in the test on BALB/C mice (setting [6]) it was 15660 p/s/cm^2/sr. Besides, the “average radiation intensity, times that of N-7413” value with BALB/C mice (at 6 hours) is 1.2 times; with BALB/C mice (at 96 hours) it was 1.1 times. The “average radiation intensity, times that of YK-CAP-001” value is 1.9 times in the test with BALB/C mice (at 6 hours) and 1.7 times in the test with BALB/C mice (at 96 hours). Moreover, the “average radiation intensity, times that of YK-CAP-002” value is on record as 2.3 times with BALB/C mice (at 6 hours) and 3.6 times in the test on BALB/C mice (at 96 hours). Moreover, the “average radiation intensity, times that of compound 14” value with BALB/C mice (at 6 hours) and in the test on BALB/C mice (at 96 hours) was 1.3 times each time. In addition, the results for the “average radiation intensity, times that of m6A” value with BALB/C mice (at 6 hours) and with BALB/C mice (at 96 hours) were 1.8 times and 2.3 times, respectively.
